Experimental findings from patent US20200031778A1, “NOVEL 5-SUBSTITUTED IMIDAZOLYLMETHYL DERIVATIVES” (Bayer CropScience Aktiengesellschaft, priority 2016, published 2020) are described below.

The test system of data set [1] is Sphaerotheca fuliginea. In words: Example IX-C: in vivo preventive test on Sphaerotheca fuliginea (powdery mildew on cucurbits). To be noted: Podosphaera fuliginea, 360 h; compounds of formula IX; 500 ppm of active ingredient; gherkin plants, preventive spray; evaluated 15 days after inoculation; read-out: efficacy. The procedure, abridged:
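Young gherkin plants sprayed with compound in DMSO/acetone/Tween 80 diluted in water, then inoculated 24 h later with Sphaerotheca fuliginea spores. Kept 72 h at 18 °C/100% RH, then 12 days at 20 °C/70-80% RH; efficacy scored 15 days post-inoculation, 0% = control, 100% = no disease.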

Another data set deals with Uromyces appendiculatus. Nature of the data set: Example IX-D: in vivo preventive test on Uromyces appendiculatus (bean rust). The following applies: 264 h, compounds of formula IX, 500 ppm of active ingredient, bean plants, preventive spray, evaluated 11 days after inoculation, read-out: efficacy. The procedure, abridged: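 Young bean plants sprayed with compound (DMSO/acetone/Tween 80 in water), then inoculated 24 h later with Uromyces appendiculatus spores. Kept 24 h at 20° C, 100% RH, then 10 days at 20° C, 70–80% RH; efficacy scored 11 days post-inoculation, 0% = untreated control, 100% = no disease.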

Data set [2] is described as follows: Log P by HPLC on reversed phase columns (EEC directive 79/831 Annex V.A8; methods [a], [b], [c]). The class given is physicochemical. A digest of the protocol:
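Reversed-phase HPLC with LC-UV detection, 10→95% acetonitrile linear gradient; aqueous eluent 0.1% formic acid [a], 0.001 M ammonium acetate, neutral [b], or 0.1% phosphoric acid [c]. Calibrated against C3–C16 alkan-2-ones of known Log P by retention-time linear interpolation; multiple values within a method separated by "+".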

The subject of a further data set is Puccinia recondita. Nature of the data set: Example IX-A: in vivo preventive test on Puccinia recondita (brown rust on wheat). The following applies: 264 h, compounds of formula IX, 500 ppm of active ingredient, wheat plants, preventive spray, evaluated 11 days after inoculation, read-out: efficacy. The procedure, abridged:
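Young wheat plants sprayed with compound in DMSO/acetone/Tween 80 diluted in water, inoculated 24 h later with spore suspension. Incubated 24 h at 20 °C, 100% RH, then 10 days at 20 °C, 70-80% RH. Efficacy scored 11 days post-inoculation, 0% equal to solvent-treated controls, 100% no disease.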

The next data set relates to Septoria tritici. In words: Example IX-B: in vivo preventive test on Septoria tritici (leaf spot on wheat). The following applies: Zymoseptoria tritici, 576 h; compounds of formula IX; 500 ppm of active ingredient; wheat plants, preventive spray; evaluated 24 days after inoculation; read-out: efficacy. The procedure, abridged: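 Wheat seedlings sprayed preventively with compound dissolved in DMSO/acetone/Tween 80 and diluted in water; solvent-only controls. Spore suspension of S. tritici sprayed 24 h later; 72 h at 18 °C/100% RH, then 21 days at 20 °C/90% RH. Efficacy scored 24 days post-inoculation, 0% = control, 100% = no disease.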

The subject of data set [3] is Sphaerotheca fuliginea. In words: Example D: in vivo preventive test on Sphaerotheca fuliginea (powdery mildew on cucurbits). To be noted: Podosphaera fuliginea, 360 h, read-out: efficacy. The method, then: Example D: In Vivo Preventive Test on Sphaerotheca Fuliginea (Powdery Mildew on Cucurbits)
The active ingredients were made soluble and homogenized in a mixture of Dimethyl sulfoxide/Acetone/Tween® 80 and then diluted in water to the desired concentration.
The young plants of gherkin were treated by spraying the active ingredient prepared as described above. Control plants were treated only with an aqueous solution of Acetone/Dimethyl sulfoxide/Tween® 80.
After 24 hours, the plants were contaminated by spraying the leaves with an aqueous suspension of Sphaerotheca fuliginea spores. The contaminated gherkin plants were incubated for 72 hours at 18° C. and at 100% relative humidity and then for 12 days at 20° C. and at 70-80% relative humidity.
The test was evaluated 15 days after the inoculation. 0% means an efficacy which corresponds to that of the control plants while an efficacy of 100% means that no disease was observed.

Setting [4] is: reversed phase HPLC column, method [a]: LC-UV, acidic range, 0.1% formic acid in water and acetonitrile as eluent (linear gradient from 10% to 95% acetonitrile).

For the compound `O=C(Cn1cncc1F)c1ccc(Oc2ccc(C(F)F)cc2)nc1C(F)(F)F` [IX-134], the pest or weed control at 500 ppm lay in the range of 90 to 100% in the data set on Sphaerotheca fuliginea [1], 90 to 100% with Uromyces appendiculatus, 80 to 89% in the data set with Puccinia recondita and 90 to 100% with Septoria tritici. Further, the chromatographic logP in data set [2] (setting [4]) worked out at 2.48.
For `O=C(Cn1cncc1Br)c1ccc(Oc2ccc(Br)cc2)cc1Cl` [IX-39, 1-[4-(4-bromophenoxy)-2-chloro-phenyl]-2-(5-bromoimidazol-1-yl)ethanone], the pest or weed control at 500 ppm with Sphaerotheca fuliginea [1], with Uromyces appendiculatus, in the data set on Puccinia recondita and in the data set with Septoria tritici was 90 to 100% in each case. The chromatographic logP in data set [2] (setting [4]) was found to be 3.1.
On to `N#Cc1cncn1CC(=O)c1cnc(Oc2ccc(Cl)cc2)cc1Cl` [IX-91], for which the pest or weed control at 500 ppm with Sphaerotheca fuliginea [1], with Uromyces appendiculatus, in the data set on Puccinia recondita and with Septoria tritici was 90 to 100% in each case. Further, in data set [2] (setting [4]), the chromatographic logP came to 3.
`N#Cc1cncn1CC(O)(C#CC1CCCCC1)C1(Cl)CC1` (stereo not drawn) [I-542, 1-[2-(1-chlorocyclopropyl)-4-cyclohexyl-2-hydroxybut-3-yn-1-yl]-1H-imidazole-5-carbonitrile]: the pest or weed control at 500 ppm in the data set with Sphaerotheca fuliginea [3] is 80 to 89%. In addition, the chromatographic logP in data set [2] (HPLC on reversed phase column, method [a]) stood at 2.96.
Take `N#Cc1cncn1CC(=O)c1cnc(Oc2ccc(C(F)(F)F)cc2)cc1Cl` [IX-114]: the pest or weed control at 500 ppm in the data set with Sphaerotheca fuliginea [1] lay in the range of 80 to 89%; with Uromyces appendiculatus, 90 to 100%; with Puccinia recondita, 90 to 100%; with Septoria tritici, 90 to 100%. In data set [2] (setting [4]), this compound showed a chromatographic logP of 3.29.
Turning to `O=C(Cn1cncc1C(F)(F)F)c1ccc(Oc2ccc(Cl)cc2)cc1Cl` [IX-57], the pest or weed control at 500 ppm lay within 90 to 100% in the data set with Sphaerotheca fuliginea [1], 80 to 89% with Uromyces appendiculatus, 90 to 100% with Puccinia recondita and 90 to 100% in the data set with Septoria tritici. This compound gave a chromatographic logP in data set [2] (setting [4]) of 4.03.
Regarding `N#Cc1cncn1CC(=O)c1ccc(Oc2ccc(I)cc2)cc1F` [IX-63], the pest or weed control at 500 ppm with Sphaerotheca fuliginea [1], in the data set on Uromyces appendiculatus, in the data set with Puccinia recondita and in the data set on Septoria tritici was 90 to 100% each time. In addition, the chromatographic logP in data set [2] (setting [4]) was found to be 3.48.
On to `N#Cc1cncn1CC(=O)c1ccc(Oc2ccc(C(F)(F)F)cc2)cc1C(F)(F)F` [IX-69], for which the pest or weed control at 500 ppm in the data set with Sphaerotheca fuliginea [1], in the data set with Uromyces appendiculatus, in the data set with Puccinia recondita and with Septoria tritici was 90 to 100% throughout. Further, in data set [2] (setting [4]), the chromatographic logP was determined as 3.69.
For `O=C(Cn1cncc1Br)c1ccc(Oc2ccc(I)cc2)cc1Cl` [IX-32], the pest or weed control at 500 ppm fell in the range of 90 to 100% with Sphaerotheca fuliginea [1], 90 to 100% in the data set on Uromyces appendiculatus, 80 to 89% in the data set on Puccinia recondita and 90 to 100% with Septoria tritici. The compound also registered a chromatographic logP in data set [2] (setting [4]) of 3.35.
As to `O=C(Cn1cncc1Cl)c1ccc(Oc2ccc(C(F)(F)F)cc2)cc1Cl` [IX-14], the pest or weed control at 500 ppm in the data set with Sphaerotheca fuliginea [1], in the data set on Uromyces appendiculatus, in the data set on Puccinia recondita and in the data set on Septoria tritici was 90 to 100% throughout. The chromatographic logP in data set [2] (setting [4]) worked out at 3.33.
Consider `O=C(Cn1cncc1Cl)c1cnc(Oc2ccc(Cl)cc2)cc1C(F)(F)F` [IX-43], for which the pest or weed control at 500 ppm in the data set on Sphaerotheca fuliginea [1] lay in the range of 90 to 100%; with Uromyces appendiculatus it was 90 to 100%; in the data set with Puccinia recondita it was 80 to 89%; with Septoria tritici, 90 to 100%. In data set [2] (setting [4]), this compound came in with a chromatographic logP of 3.09.
With `O=C(Cn1cncc1Br)c1ccc(Oc2ccc(Cl)cc2)cc1Cl` [IX-18], the pest or weed control at 500 ppm with Sphaerotheca fuliginea [1], with Uromyces appendiculatus, in the data set on Puccinia recondita and in the data set on Septoria tritici was 90 to 100% each time. In data set [2] (setting [4]), this compound had a chromatographic logP of 3.07.
In the case of `N#Cc1cncn1CC(=O)c1ccc(Oc2ccc(Cl)cc2)cc1Cl` [IX-31], the pest or weed control at 500 ppm in the data set on Sphaerotheca fuliginea [1], in the data set on Uromyces appendiculatus, in the data set on Puccinia recondita and in the data set with Septoria tritici was 90 to 100% throughout. For the same compound, the chromatographic logP in data set [2] (setting [4]) turned out to be 3.46.
As for `N#Cc1cncn1CC(=O)c1ccc(Oc2ccc(Br)cc2)cc1Br` [IX-67], the pest or weed control at 500 ppm in the data set on Sphaerotheca fuliginea [1], in the data set with Uromyces appendiculatus, in the data set with Puccinia recondita and in the data set on Septoria tritici was 90 to 100% throughout. Besides, the chromatographic logP in data set [2] (setting [4]) stood at 3.62.
Regarding `O=C(Cn1cncc1C(F)(F)F)c1ccc(Oc2ccc(Cl)cc2)cc1F` [IX-80], the pest or weed control at 500 ppm in the data set with Sphaerotheca fuliginea [1], in the data set with Uromyces appendiculatus, with Puccinia recondita and in the data set with Septoria tritici was 90 to 100% throughout. In addition, in data set [2] (setting [4]), the chromatographic logP is 3.85.
As to `N#Cc1cncn1CC(=O)c1cnc(Oc2ccc(C(F)(F)F)cc2)cc1C(F)(F)F` [IX-89], the pest or weed control at 500 ppm with Sphaerotheca fuliginea [1] fell in the range of 90 to 100%; with Uromyces appendiculatus it was 90 to 100%; in the data set on Puccinia recondita, 80 to 89%; in the data set with Septoria tritici it was 90 to 100%. This compound registered a chromatographic logP in data set [2] (setting [4]) of 3.42.
In the case of `O=C(Cn1cncc1Cl)c1ccc(Oc2ccc(Cl)cc2)cc1Cl` [IX-04], the pest or weed control at 500 ppm in the data set on Sphaerotheca fuliginea [1], in the data set with Uromyces appendiculatus, with Puccinia recondita and in the data set with Septoria tritici was 90 to 100% in each case. Moreover, in data set [2] (setting [4]), the chromatographic logP was found to be 3.17.
Turning to `O=C(Cn1cncc1F)c1ccc(Oc2ccc(Cl)cc2)cc1C(F)(F)F` [IX-83], the pest or weed control at 500 ppm with Sphaerotheca fuliginea [1] was in the range of 80 to 89%; with Uromyces appendiculatus it was 90 to 100%; in the data set with Puccinia recondita it was 80 to 89%; with Septoria tritici, 90 to 100%. Moreover, the chromatographic logP in data set [2] (setting [4]) is 2.88.
On to `N#Cc1cncn1CC(=O)c1ccc(Oc2ccc(S(F)(F)(F)(F)F)cc2)nc1Cl` [IX-74], for which the pest or weed control at 500 ppm in the data set on Sphaerotheca fuliginea [1], in the data set on Uromyces appendiculatus, in the data set with Puccinia recondita and in the data set with Septoria tritici was 90 to 100% in each case. Moreover, the chromatographic logP in data set [2] (setting [4]) worked out at 3.42.
Take `O=C(Cn1cncc1F)c1ccc(Oc2ccc(C(F)F)cc2)nc1Cl` [IX-84]: the pest or weed control at 500 ppm in the data set on Sphaerotheca fuliginea [1] was 90 to 100%; with Uromyces appendiculatus, 90 to 100%; with Puccinia recondita, 80 to 89%; in the data set with Septoria tritici, 90 to 100%. Besides, the chromatographic logP in data set [2] (setting [4]) was determined as 2.12.
On to `O=C(Cn1cncc1F)c1cnc(Oc2ccc(C(F)(F)F)cc2)cc1Cl` [IX-110], for which the pest or weed control at 500 ppm in the data set on Sphaerotheca fuliginea [1], in the data set with Uromyces appendiculatus, in the data set with Puccinia recondita and with Septoria tritici was 90 to 100% in each case. This compound also returned a chromatographic logP in data set [2] (setting [4]) of 2.56.
In the case of `O=C(Cn1cncc1Cl)c1ccc(Oc2ccc(Br)cc2)cc1Br` [IX-37], the pest or weed control at 500 ppm was 90 to 100% with Sphaerotheca fuliginea [1], 90 to 100% in the data set with Uromyces appendiculatus, 80 to 89% in the data set on Puccinia recondita and 90 to 100% in the data set with Septoria tritici. In addition, the chromatographic logP in data set [2] (setting [4]) came to 3.22.
In the case of `N#Cc1cncn1CC(=O)c1ccc(Oc2ccc(Cl)cc2)nc1C(F)(F)F` [IX-107], the pest or weed control at 500 ppm in the data set with Sphaerotheca fuliginea [1] is 90 to 100%; in the data set with Uromyces appendiculatus, 80 to 89%; in the data set with Puccinia recondita, 90 to 100%; in the data set with Septoria tritici, 90 to 100%. In addition, in data set [2] (setting [4]), the chromatographic logP was found to be 3.33.
For `O=C(Cn1cncc1Cl)c1ccc(Oc2ccc(Cl)cc2)cc1Br` [IX-34], the pest or weed control at 500 ppm in the data set on Sphaerotheca fuliginea [1] fell in the range of 90 to 100%; in the data set with Uromyces appendiculatus it was 90 to 100%; with Puccinia recondita, 80 to 89%; in the data set with Septoria tritici, 90 to 100%. In data set [2] (setting [4]), the chromatographic logP turned out to be 3.15.

The chromatographic logP is lipophilicity estimated from chromatographic retention. High values mean higher lipophilicity, low ones lower lipophilicity.
